Assay results from PubChem BioAssay (NCI).
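Following 48 hours of exposure in 96-well plates, responses at five concentrations were used to interpolate endpoints linearly. At the GI50, growth is halved. TGI is the concentration that stops growth completely.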

How the values were obtained:
Assay in all cases: DTP human tumour cell line panel, 48 h
SK-OV-3 ovarian = system: SK-OV-3 ovarian
HT29 colon = system: HT29 colon
BT-549 breast = system: BT-549 breast
OVCAR-4 ovarian = system: OVCAR-4 ovarian
UACC-62 melanoma = system: UACC-62 melanoma
HOP-92 NSCLC = system: HOP-92 NSCLC
M14 melanoma = system: M14 melanoma
SR leukemia = system: SR leukemia
CCRF-CEM leukemia = system: CCRF-CEM leukemia
DU-145 prostate = system: DU-145 prostate
SNB-19 CNS = system: SNB-19 CNS
SF-539 CNS = system: SF-539 CNS
SN12C renal = system: SN12C renal
OVCAR-8 ovarian = system: OVCAR-8 ovarian
MOLT-4 leukemia = system: MOLT-4 leukemia
OVCAR-3 ovarian = system: OVCAR-3 ovarian
HS 578T breast = system: HS 578T breast
786-0 renal = system: 786-0 renal
HCT-15 colon = system: HCT-15 colon
SK-MEL-28 melanoma = system: SK-MEL-28 melanoma
NCI/ADR-RES ovarian = system: NCI/ADR-RES ovarian
TK-10 renal = system: TK-10 renal
HCC-2998 colon = system: HCC-2998 colon
SW-620 colon = system: SW-620 colon
CAKI-1 renal = system: CAKI-1 renal
COLO 205 colon = system: COLO 205 colon
NCI-H460 lung = system: NCI-H460 lung
HL-60(TB) leukemia = system: HL-60(TB) leukemia
SK-MEL-5 melanoma = system: SK-MEL-5 melanoma
MALME-3M melanoma = system: MALME-3M melanoma
OVCAR-5 ovarian = system: OVCAR-5 ovarian
MDA-MB-435 = system: MDA-MB-435
NCI-H23 lung = system: NCI-H23 lung
SF-268 CNS = system: SF-268 CNS
RPMI-8226 leukemia = system: RPMI-8226 leukemia
U251 CNS = system: U251 CNS
T-47D breast = system: T-47D breast
SNB-75 CNS = system: SNB-75 CNS
KM12 colon = system: KM12 colon
ACHN renal = system: ACHN renal
UO-31 renal = system: UO-31 renal
SF-295 CNS = system: SF-295 CNS
K-562 leukemia = system: K-562 leukemia
EKVX NSCLC = system: EKVX NSCLC
HCT-116 colon = system: HCT-116 colon
A498 renal = system: A498 renal
UACC-257 melanoma = system: UACC-257 melanoma
A549 NSCLC = system: A549 NSCLC
NCI-H226 lung = system: NCI-H226 lung
MCF7 breast = system: MCF7 breast
PC-3 prostate = system: PC-3 prostate
MDA-MB-468 breast = system: MDA-MB-468 breast
MDA-MB-231 breast = system: MDA-MB-231 breast
NCI-H522 lung = system: NCI-H522 lung
SK-MEL-2 melanoma = system: SK-MEL-2 melanoma
LOX IMVI melanoma = system: LOX IMVI melanoma
IGROV1 ovarian = system: IGROV1 ovarian
RXF 393 renal = system: RXF 393 renal
HOP-62 NSCLC = system: HOP-62 NSCLC

## N#Cc1c(NC(=O)c2ccc(C(F)(F)F)cc2)sc2c1CCC(=O)C2
SK-OV-3 ovarian
  GI50: 2.43 µM
  TGI: 6.87 µM
HT29 colon
  GI50: 0.465 µM
  TGI: 2.06 µM
BT-549 breast
  GI50: 1.07 µM
  TGI: 2.51 µM
OVCAR-4 ovarian
  GI50: 1.12 µM
  TGI: 2.78 µM
UACC-62 melanoma
  GI50: 0.691 µM
  TGI: 2 µM
HOP-92 NSCLC
  GI50: 1.19 µM
  TGI: 3.56 µM
M14 melanoma
  GI50: 1.01 µM
  TGI: 2.85 µM
SR leukemia
  GI50: 0.522 µM
  TGI: > 100 µM
CCRF-CEM leukemia
  GI50: 0.345 µM
  TGI: > 33.3 µM
DU-145 prostate
  GI50: 3.75 µM
  TGI: > 100 µM
SNB-19 CNS
  GI50: 2.2 µM
  TGI: 13.1 µM
SF-539 CNS
  GI50: 0.3 µM
  TGI: 1.06 µM
SN12C renal
  GI50: 0.539 µM
  TGI: 3.2 µM
OVCAR-8 ovarian
  GI50: 1.39 µM
  TGI: 5.9 µM
MOLT-4 leukemia
  GI50: 0.419 µM
  TGI: > 30.1 µM
OVCAR-3 ovarian
  GI50: 0.844 µM
  TGI: 3.2 µM
HS 578T breast
  GI50: 1.17 µM
  TGI: 5.02 µM
786-0 renal
  GI50: 2.5 µM
  TGI: > 41.2 µM
HCT-15 colon
  GI50: 0.362 µM
  TGI: 1.45 µM
SK-MEL-28 melanoma
  GI50: 0.82 µM
  TGI: 2.11 µM
NCI/ADR-RES ovarian
  GI50: 0.718 µM
  TGI: 2.93 µM
TK-10 renal
  GI50: 1.05 µM
  TGI: 6.85 µM
HCC-2998 colon
  GI50: 1.43 µM
  TGI: 2.93 µM
SW-620 colon
  GI50: 0.411 µM
  TGI: 1.82 µM
CAKI-1 renal
  GI50: 0.572 µM
  TGI: 2.06 µM
COLO 205 colon
  GI50: 0.951 µM
  TGI: 2.33 µM
NCI-H460 lung
  GI50: 2.86 µM
  TGI: 11.8 µM
HL-60(TB) leukemia
  GI50: 0.436 µM
  TGI: > 33.2 µM
SK-MEL-5 melanoma
  GI50: 1.35 µM
  TGI: 2.64 µM
MALME-3M melanoma
  GI50: 1.15 µM
  TGI: 2.73 µM
OVCAR-5 ovarian
  GI50: 1.68 µM
  TGI: 3.5 µM
MDA-MB-435
  GI50: 1.4 µM
  TGI: 2.97 µM
NCI-H23 lung
  GI50: 0.402 µM
  TGI: 2.09 µM
SF-268 CNS
  GI50: 2.16 µM
  TGI: 11.5 µM
RPMI-8226 leukemia
  GI50: 0.273 µM
  TGI: > 100 µM
U251 CNS
  GI50: 0.622 µM
  TGI: 2.47 µM
T-47D breast
  GI50: 0.322 µM
  TGI: 1.38 µM
SNB-75 CNS
  GI50: 1.91 µM
  TGI: 5.25 µM
KM12 colon
  GI50: 1.28 µM
  TGI: 4.7 µM
ACHN renal
  GI50: 0.39 µM
  TGI: 1.4 µM
UO-31 renal
  GI50: 0.467 µM
  TGI: 1.7 µM
SF-295 CNS
  GI50: 1.29 µM
  TGI: 2.96 µM
K-562 leukemia
  GI50: 0.316 µM
EKVX NSCLC
  GI50: 1.32 µM
  TGI: 3.66 µM
HCT-116 colon
  GI50: 0.359 µM
  TGI: 2.09 µM
A498 renal
  GI50: 24.6 µM
  TGI: 87.5 µM
UACC-257 melanoma
  GI50: 2.15 µM
  TGI: > 22.8 µM
A549 NSCLC
  GI50: 3.52 µM
  TGI: 16.3 µM
NCI-H226 lung
  GI50: 2.18 µM
  TGI: 7.91 µM
MCF7 breast
  GI50: 0.553 µM
  TGI: 10.1 µM
PC-3 prostate
  GI50: 0.41 µM
  TGI: 2.79 µM
MDA-MB-468 breast
  GI50: 0.557 µM
  TGI: 2.27 µM
MDA-MB-231 breast
  GI50: 0.701 µM
  TGI: 1.98 µM
NCI-H522 lung
  GI50: 0.273 µM
  TGI: 0.951 µM
SK-MEL-2 melanoma
  GI50: 2.07 µM
  TGI: 4.89 µM
LOX IMVI melanoma
  GI50: 0.35 µM
  TGI: 1.48 µM
IGROV1 ovarian
  GI50: 1.23 µM
  TGI: 2.74 µM
RXF 393 renal
  GI50: 0.271 µM
  TGI: 1.23 µM
HOP-62 NSCLC
  GI50: 2.84 µM
  TGI: 11.4 µM
